Results taken from DBAASP.
In brackets after ≈: the same amount, converted by molar mass. One block for each compound: values may come before it.

Experiments:
Test in all cases: ≥ marks a high value that may be exact or a test limit, other limits are often not marked, values filed in µg/mL are converted to µM
[1] = tested on: Pseudomonas aeruginosa Q14-0890
[2] = tested on: Staphylococcus aureus Q14-0320
[3] = tested on: Staphylococcus aureus NCTC 12493
[4] = tested on: Klebsiella pneumoniae ATCC 700603
[5] = tested on: Acinetobacter baumannii Q13-0717
[6] = tested on: Listeria monocytogenes NCTC 11994
[7] = tested on: Pseudomonas aeruginosa Q12-0535
[8] = tested on: Klebsiella pneumoniae Q14-0285
[9] = tested on: Pseudomonas aeruginosa Q14-0208
[10] = tested on: Enterococcus faecalis JH-2-2
[11] = tested on: Staphylococcus aureus MRSA-15
[12] = tested on: Acinetobacter baumannii Q12-0809
[13] = tested on: Campylobacter jejuni
[14] = tested on: Salmonella typhimurium SL1344
[15] = tested on: Escherichia coli
[16] = tested on: Klebsiella pneumoniae Q14-0095
[17] = tested on: Escherichia coli K-12
[18] = tested on: Staphylococcus aureus RN4220
[19] = tested on: Campylobacter jejuni NCTC 11351
[20] = tested on: Staphylococcus aureus ATCC 29213
[21] = tested on: Klebsiella pneumoniae NCTC 13442
[22] = tested on: Pseudomonas aeruginosa ATCC 27853
[23] = tested on: Staphylococcus aureus Q14-0325
[24] = tested on: Pseudomonas aeruginosa PAO1
[25] = tested on: Bacillus cereus ATCC 14579
[26] = tested on: Rhizoctonia solani
[27] = tested on: Pseudomonas syringae pv. tabaci
[28] = tested on: Ramulariopsis gossypii
[29] = tested on: Pectobacterium carotovorum
[30] = tested on: Trichoderma asperellum
[31] = tested on: Cryptococcus neoformans ATCC 28957
[32] = tested on: Staphylococcus aureus ATCC 25923
[33] = tested on: Bacillus subtilis ATCC 23857
[34] = tested on: Xanthomonas campestris pv. citri
[35] = tested on: Fusarium oxysporum f.sp. vasinfectum
[36] = tested on: Candida albicans ATCC 90028
[37] = tested on: Fusarium solani
[38] = tested on: Escherichia coli ATCC 25922
[39] = tested on: Fusarium oxysporum
[40] = tested on: Staphylococcus epidermidis ATCC 12228
[41] = tested on: Enterococcus faecalis ATCC 4028
[42] = tested on: Candida krusei ATCC 6258
[43] = tested on: Candida glabrata ATCC 90030
[44] = tested on: Enterobacter cloacae ATCC 13047
[45] = tested on: Salmonella enterica subsp. enterica serovar Enteritidis ATCC 13076
[46] = tested on: Streptococcus pyogenes ATCC 19615
[47] = tested on: Serratia marcescens ATCC 21202
[48] = tested on: Bacillus cereus ATCC 11778
[49] = tested on: Listeria monocytogenes ATCC 19112
[50] = tested on: Pseudomonas aeruginosa ATCC 15442

MIC [1]: 13.9 µM (≈ 32 µg/mL) | MIC [2]: ≥ 55.4 µM | MIC [3]: 13.9 µM (≈ 32 µg/mL) | MIC [4]: 55.4 µM (≈ 128 µg/mL) | MIC [5]: 27.7 µM (≈ 64 µg/mL) | MIC [6]: 27.7 µM (≈ 64 µg/mL) | MIC [7]: ≥ 55.4 µM | MIC [8]: ≥ 55.4 µM | MIC [9]: 27.7 µM (≈ 64 µg/mL) | MIC [10]: 27.7 µM (≈ 64 µg/mL) | MIC [11]: 27.7 µM (≈ 64 µg/mL) | MIC [12]: 13.9 µM (≈ 32 µg/mL) | MIC [13]: ≥ 55.4 µM | MIC [14]: 13.9 µM (≈ 32 µg/mL) | MIC [15]: > 55.4 µM | MIC [16]: ≥ 55.4 µM | MIC [17]: 27.7 µM (≈ 64 µg/mL) | MIC [18]: 27.7 µM (≈ 64 µg/mL) | MIC [19]: ≥ 55.4 µM | MIC [20]: 55.4 µM (≈ 128 µg/mL) | MIC [21]: ≥ 55.4 µM | MIC [22]: > 55.4 µM | MIC [23]: ≥ 55.4 µM | MIC [24]: 13.9 µM (≈ 32 µg/mL)
Structure (SMILES): CC(C)C[C@H](NC(=O)[C@H](CO)NC(=O)[C@H](CO)NC(=O)[C@H](CO)NC(=O)[C@H](CCCN=C(N)N)NC(=O)[C@@H](NC(=O)[C@H](CCCN=C(N)N)NC(=O)[C@H](Cc1c[nH]c2ccccc12)NC(=O)[C@H](CS)NC(=O)[C@H](CC(N)=O)NC(=O)[C@H](CCCN=C(N)N)NC(=O)[C@H](Cc1ccccc1)NC(=O)[C@H](C)NC(=O)[C@H](CCCCN)NC(=O)[C@H](Cc1c[nH]c2ccccc12)NC(=O)[C@H](CCCN=C(N)N)NC(=O)[C@H](Cc1c[nH]c2ccccc12)NC(=O)[C@H](C)N)C(C)C)C(=O)O [AWRWKAFRNCWRVRSSSL]

Structure (SMILES): CC[C@H](C)[C@H](NC(=O)[C@H](Cc1cnc[nH]1)NC(=O)CNC(=O)[C@H](Cc1ccccc1)NC(=O)[C@@H](N)Cc1ccccc1)C(=O)N[C@@H](Cc1c[nH]c2ccccc12)C(=O)N[C@@H](Cc1cnc[nH]1)C(=O)NCC(=O)N[C@@H](C)C(=O)N[C@@H](CCCN=C(N)N)C(=O)N[C@H](C(=O)N[C@@H](CC(C)C)C(=O)N[C@@H](Cc1ccccc1)C(=O)N[C@@H](CCCN=C(N)N)C(=O)N[C@@H](CC(=O)O)C(=O)N[C@H](C(=O)N[C@@H](Cc1ccccc1)C(=O)N[C@@H](C)C(N)=O)C(C)C)[C@@H](C)O [FFGHIWHGARTLFRDVFA]
MIC [25]: ≥ 64 µM | MIC [26]: ≥ 32 µM | MIC [27]: 4 µM (≈ 8.71 µg/mL) | MIC [28]: 16 µM (≈ 34.8 µg/mL) | MIC [29]: ≥ 32 µM | MIC [30]: 8 µM (≈ 17.4 µg/mL) | MIC [31]: ≥ 32 µM | MIC [32]: 8 µM (≈ 17.4 µg/mL) | MIC [33]: 3.33 µM (≈ 7.25 µg/mL) | MIC [34]: ≥ 32 µM | MIC [35]: 13.3 µM (≈ 29 µg/mL) | MIC [36]: ≥ 32 µM | MIC [37]: 8 µM (≈ 17.4 µg/mL) | MIC [38]: 8 µM (≈ 17.4 µg/mL) | MIC [39]: 16 µM (≈ 34.8 µg/mL)

MIC [40]: 1.17 µM (≈ 2.23 µg/mL) | MIC [41]: 1.17 µM (≈ 2.23 µg/mL) | MIC [20]: 2.34 µM (≈ 4.46 µg/mL) | MIC [42]: ≥ 37.5 µM | MIC [36]: 9.38 µM (≈ 17.9 µg/mL) | MIC [43]: 18.8 µM (≈ 35.8 µg/mL) | MIC [38]: 4.69 µM (≈ 8.95 µg/mL) | MIC [22]: 9.38 µM (≈ 17.9 µg/mL) | MIC [44]: 18.8 µM (≈ 35.8 µg/mL)
Structure (SMILES): CC[C@H](C)[C@H](NC(=O)[C@H](CC(C)C)NC(=O)CNC(=O)[C@H](CCCCN)NC(=O)[C@@H](NC(=O)[C@H](CC(C)C)NC(=O)[C@H](CCCCN)NC(=O)[C@@H]1CCCN1C(=O)[C@@H](NC(=O)[C@H](CC(C)C)NC(=O)[C@H](CO)NC(=O)[C@H](Cc1ccccc1)NC(=O)[C@@H](N)Cc1ccccc1)[C@@H](C)CC)C(C)C)C(=O)N[C@@H](CO)C(=O)N[C@@H](C)C(=O)N[C@@H](Cc1ccccc1)C(=O)N[C@@H](CCCCN)C(N)=O [FFSLIPKLVKGLISAFK]

MIC [4]: > 37.9 µM | MIC [45]: ≥ 37.9 µM | MIC [46]: ≥ 37.9 µM | MIC [47]: ≥ 37.9 µM | MIC [48]: ≥ 37.9 µM | MIC [20]: > 37.9 µM | MIC [38]: > 37.9 µM | MIC [22]: > 37.9 µM
Structure (SMILES): CC[C@H](C)[C@H](N)C(=O)N[C@H](C(=O)N1CCC[C@H]1C(=O)N[C@@H](CC(C)C)C(=O)N1CCC[C@H]1C(=O)N[C@@H](CC(C)C)C(=O)NCC(=O)N[C@@H](Cc1ccc(O)cc1)C(=O)N[C@@H](Cc1ccccc1)C(=O)N[C@@H](C)C(=O)N[C@@H](CCCCN)C(=O)N[C@@H](CCCCN)C(=O)N[C@@H](CCCCN)C(=O)N[C@@H](CCCCN)C(=O)N[C@@H](CCCCN)C(=O)N[C@@H](CCCCN)C(=O)N[C@@H](CC(=O)O)C(=O)N1CCC[C@H]1C(=O)N[C@H](C(=O)N1CCC[C@H]1C(=O)N[C@@H](CC(C)C)C(=O)N[C@@H](CC(=O)O)C(=O)N[C@@H](CCC(N)=O)C(=O)O)C(C)C)[C@@H](C)CC [IIPLPLGYFAKKKKKKDPVPLDQ]

MIC [49]: 31.2 µM (≈ 64 µg/mL) | MIC [50]: 13 µM (≈ 26.7 µg/mL)
Structure (SMILES): CC[C@H](C)[C@H](NC(=O)[C@H](CO)NC(=O)[C@@H](N)CC(C)C)C(=O)N[C@@H](CCCN=C(N)N)C(=O)N[C@@H](CCCN=C(N)N)C(=O)N[C@@H](CC(C)C)C(=O)N[C@@H](CC(C)C)C(=O)N[C@@H](C)C(=O)N[C@@H](C)C(=O)NCC(=O)N[C@H](C(=O)N[C@@H](CC(C)C)C(=O)N[C@@H](CCCCN)C(=O)N[C@@H](CCC(N)=O)C(=O)N[C@H](C(=O)N[C@@H](CCCCN)C(=O)NCC(=O)N[C@H](C(=O)NCC(=O)N[C@@H](C)C(=O)O)C(C)C)[C@@H](C)O)C(C)C [LSIRRLLAAGVLKQTKGVGA]
